Measurements: patent publication US11987648B2, “Cyclohexapeptides as selective somatostatin SST5 receptor agonists” (Heptares Therapeutics Limited, priority 2018, dated 2024)
*1 amine or outer side, *2 acyl side, *3 side chain or, on linkers, in order; H or OH if unused. Where a SMILES comes first, the peptide text is derived from it. Side-chain parts run from the residue outwards. [ ]: non-standard residue; d: D form. The star is where a group is joined. Ala(piperidin-4-yl) = O=C([C@H](CC1CCN([*:3])CC1)N[*:1])[*:2]; dTrp(4-OMe) = COc1cccc2[nH]cc(C[C@@H](N)C(=O)O)c12; dTrp(5-OMe) = COc1ccc2[nH]cc(C[C@@H](N)C(=O)O)c2c1; Ala(piperazin-1-yl) = N[C@@H](CN1CCNCC1)C(=O)O; X5 = CN([C@@H](CC1CCNCC1)C(=O)[*:2])[*:1]; Phe(3-Cl) = N[C@@H](Cc1cccc(Cl)c1)C(=O)O; Phe(4-Cl) = N[C@@H](Cc1ccc(Cl)cc1)C(=O)O; Morpholine(3S-CO) = O=C(O)[C@@H]1COCCN1; Ethylenediamine = C(CN[*:2])N[*:1]; d(hPhe) = N[C@H](CCc1ccccc1)C(=O)O; Hyp = O=C(O)[C@@H]1C[C@@H](O)CN1; hPhe = N[C@@H](CCc1ccccc1)C(=O)O; 3Pal = N[C@@H](Cc1cccnc1)C(=O)O; Cyclohexylmethyl = C1CCC(C*)CC1; Tic = O=C(O)[C@@H]1Cc2ccccc2CN1; Benzyl(4-Cl) = Clc1ccc(C*)cc1; X6 = Clc1cccc(Cl)c1C*; CO = O=C([*:1])[*:2]; Bn = c1ccc(C*)cc1; X1 = C1CCC(C*)C1

Columns and labels:
SST5 = SST5 (Homo sapiens, UniProt P35346); assay: Hit Hunter cAMP XS+ assay, SST5 activation via Gi (reduction of forskolin-stimulated cAMP); assay type: cell-based; details: for Emax: read-out: SST5 (EMax); for EC50: reduction of forskolin-stimulated cAMP, 4-parameter logistic fit, read-out: SST5 pEC50 (converted); for SST5/2 Selectivity: selectivity for SST5 over SST2
Sequence of SST5 (P35346 whole entry, the tested form may be a part): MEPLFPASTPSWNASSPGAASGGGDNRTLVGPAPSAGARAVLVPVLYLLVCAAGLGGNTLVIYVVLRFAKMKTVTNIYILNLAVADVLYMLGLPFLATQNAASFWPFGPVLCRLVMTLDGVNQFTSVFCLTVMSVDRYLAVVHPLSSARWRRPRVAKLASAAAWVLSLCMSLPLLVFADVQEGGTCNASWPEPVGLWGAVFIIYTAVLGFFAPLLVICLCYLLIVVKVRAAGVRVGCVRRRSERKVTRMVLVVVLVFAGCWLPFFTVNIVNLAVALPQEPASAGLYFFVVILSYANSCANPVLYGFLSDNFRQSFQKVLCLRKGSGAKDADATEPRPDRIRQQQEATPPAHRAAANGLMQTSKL
How it was run: (§1)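 Cells (10,000/well) incubated 30 min at 37 °C with compound under EC80 forskolin ([…] for SST2, 15 μM for SST5). cAMP reduction was detected by enzyme-fragment complementation chemiluminescence after 60 min and 180 min room-temperature reagent steps. Potency and efficacy were both measured.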

SST2 = SST2 (Homo sapiens, UniProt P30874); assay: Hit Hunter cAMP XS+ assay, SST2 activation via Gi (reduction of forskolin-stimulated cAMP); assay type: cell-based; details: for Emax: read-out: SST2 (EMax); for EC50: reduction of forskolin-stimulated cAMP, 4-parameter logistic fit, read-out: SST2 pEC50 (converted)
Sequence of SST2 (P30874 whole entry): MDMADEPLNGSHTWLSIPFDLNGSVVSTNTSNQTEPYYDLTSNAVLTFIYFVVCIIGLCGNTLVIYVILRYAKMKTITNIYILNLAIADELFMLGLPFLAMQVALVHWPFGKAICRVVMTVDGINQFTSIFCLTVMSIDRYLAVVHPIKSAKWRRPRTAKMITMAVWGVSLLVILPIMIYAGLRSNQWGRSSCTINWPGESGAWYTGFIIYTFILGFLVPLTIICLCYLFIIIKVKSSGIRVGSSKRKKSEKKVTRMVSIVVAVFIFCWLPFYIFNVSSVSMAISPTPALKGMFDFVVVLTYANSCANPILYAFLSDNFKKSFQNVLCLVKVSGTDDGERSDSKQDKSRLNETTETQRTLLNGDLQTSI
How it was run: as §1

SMILES | Emax (SST5) | EC50 (SST5) | SST5/2 Selectivity (SST5) | Emax (SST2) | EC50 (SST2)
CN1C(=O)[C@@H](Cc2c[nH]c3ccccc23)NC(=O)[C@@H](CCc2ccccc2)NC(=O)[C@@H]2COCCN2C(=O)[C@@H]2Cc3ccccc3CN2C(=O)[C@H](Cc2ccc(OCc3ccccc3)cc2)NC(=O)[C@@H]1CC1CCNCC1 [Example 32] (cyclo([Tic][Morpholine(3S-CO)][d(hPhe)][dW][X5]Y(Bn))) | 99.9% | 1.26 nM | 66.8 | 98.8% | 100 nM
NCCNC(=O)O[C@@H]1C[C@H]2C(=O)N[C@H](CCc3ccccc3)C(=O)N[C@@H](Cc3c[nH]c4ccccc34)C(=O)N[C@@H](CN3CCNCC3)C(=O)N[C@@H](Cc3ccc(OCc4ccccc4)cc3)C(=O)N[C@@H](Cc3cccnc3)C(=O)N2C1 [Example 33] (cyclo([3Pal][Hyp]([CO-Ethylenediamine])[d(hPhe)]W[Ala(piperazin-1-yl)]Y(Bn))) | 107% | 39.8 nM | 279.1 | 13.4% | > 10000 nM
NCCNC(=O)O[C@@H]1C[C@H]2C(=O)N[C@@H](CCc3ccccc3)C(=O)N[C@@H](Cc3c[nH]c4ccccc34)C(=O)N[C@@H](CN3CCNCC3)C(=O)N[C@@H](Cc3ccc(OCc4ccccc4)cc3)C(=O)N[C@@H](Cc3cccnc3)C(=O)N2C1 [Example 34] (cyclo([3Pal][Hyp]([CO-Ethylenediamine])[hPhe]W[Ala(piperazin-1-yl)]Y(Bn))) | 102% | 1 nM | 3271.8 | 49.2% | 3980 nM
NCCNC(=O)O[C@@H]1C[C@H]2C(=O)N[C@H](CCc3ccccc3)C(=O)N[C@@H](Cc3c[nH]c4ccccc34)C(=O)N[C@@H](CN3CCNCC3)C(=O)N[C@@H](Cc3ccc(OCc4ccccc4)cc3)C(=O)N3Cc4ccccc4C[C@H]3C(=O)N2C1 [Example 35] (cyclo([Hyp]([CO-Ethylenediamine])[d(hPhe)]W[Ala(piperazin-1-yl)]Y(Bn)[Tic])) | 107% | 1 nM | 10046.0 | 27.8% | > 10000 nM
NCCNC(=O)O[C@@H]1C[C@H]2C(=O)N[C@@H](CCc3ccccc3)C(=O)N[C@@H](Cc3c[nH]c4ccccc34)C(=O)N[C@@H](CN3CCNCC3)C(=O)N[C@@H](Cc3ccc(OCc4ccccc4)cc3)C(=O)N3Cc4ccccc4C[C@H]3C(=O)N2C1 [Example 36] (cyclo([Hyp]([CO-Ethylenediamine])[hPhe]W[Ala(piperazin-1-yl)]Y(Bn)[Tic])) | 102% | 1.26 nM | 384.3 | 63.4% | 501 nM
NCCNC(=O)O[C@@H]1C[C@H]2C(=O)N[C@@H](CCc3ccccc3)C(=O)N[C@H](Cc3c[nH]c4ccccc34)C(=O)N[C@@H](CN3CCNCC3)C(=O)N[C@@H](Cc3ccc(OCc4ccccc4)cc3)C(=O)N3CCC[C@H]3C(=O)N2C1 [Example 37] (cyclo([Hyp]([CO-Ethylenediamine])[hPhe][dW][Ala(piperazin-1-yl)]Y(Bn)P)) | 108% | 2 nM | 2927.5 | 75.8% | 6310 nM
NCCNC(=O)O[C@@H]1C[C@H]2C(=O)N[C@H](CCc3ccccc3)C(=O)N[C@H](Cc3c[nH]c4ccccc34)C(=O)N[C@@H](CC3CCNCC3)C(=O)N[C@@H](Cc3ccc(OCc4ccccc4)cc3)C(=O)N[C@@H](Cc3ccccc3)C(=O)N2C1 [Example 38] (cyclo(F[Hyp]([CO-Ethylenediamine])[d(hPhe)][dW][Ala(piperidin-4-yl)]Y(Bn))) | 103% | 12.6 nM | 171.5 | 82.7% | 2510 nM
COc1ccc2[nH]cc(C[C@H]3NC(=O)[C@H](CCc4ccccc4)NC(=O)[C@@H]4C[C@@H](OC(=O)NCCN)CN4C(=O)[C@H](Cc4cccnc4)NC(=O)[C@H](Cc4ccc(OCc5ccccc5)cc4)NC(=O)[C@H](CC4CCNCC4)NC3=O)c2c1 [Example 39] (cyclo([3Pal][Hyp]([CO-Ethylenediamine])[hPhe][dTrp(5-OMe)][Ala(piperidin-4-yl)]Y(Bn))) | 107% | 0.398 nM | 1104.6 | 100% | 398 nM
NCCNC(=O)O[C@@H]1C[C@H]2C(=O)N[C@@H](CCc3ccccc3)C(=O)N[C@H](Cc3c[nH]c4ccccc34)C(=O)N[C@@H](CC3CCNCC3)C(=O)N[C@@H](Cc3ccc(OCc4ccc(Cl)cc4)cc3)C(=O)N[C@@H](Cc3cccnc3)C(=O)N2C1 [Example 40] (cyclo([3Pal][Hyp]([CO-Ethylenediamine])[hPhe][dW][Ala(piperidin-4-yl)]Y(Benzyl(4-Cl)))) | 106% | 2.51 nM | 126.6 | 91.2% | 316 nM
NCCNC(=O)O[C@@H]1C[C@H]2C(=O)N[C@@H](CCc3ccccc3)C(=O)N[C@H](Cc3c[nH]c4ccccc34)C(=O)N[C@@H](CC3CCNCC3)C(=O)N[C@@H](Cc3ccc(OCc4ccccc4)cc3)C(=O)N[C@@H](Cc3cccc(Cl)c3)C(=O)N2C1 [Example 41] (cyclo([Hyp]([CO-Ethylenediamine])[hPhe][dW][Ala(piperidin-4-yl)]Y(Bn)[Phe(3-Cl)])) | 104% | 0.158 nM | 51.0 | 102% | 7.94 nM
NCCNC(=O)O[C@@H]1C[C@H]2C(=O)N[C@@H](CCc3ccccc3)C(=O)N[C@H](Cc3c[nH]c4ccccc34)C(=O)N[C@@H](CC3CCNCC3)C(=O)N[C@@H](Cc3ccc(OCc4ccccc4)cc3)C(=O)N[C@@H](Cc3ccc(Cl)cc3)C(=O)N2C1 [Example 42] (cyclo([Hyp]([CO-Ethylenediamine])[hPhe][dW][Ala(piperidin-4-yl)]Y(Bn)[Phe(4-Cl)])) | 104% | 0.251 nM | 45.1 | 99.3% | 12.6 nM
COc1ccc(C[C@@H]2NC(=O)[C@H](Cc3ccc(OCc4ccccc4)cc3)NC(=O)[C@H](CC3CCNCC3)NC(=O)[C@@H](Cc3c[nH]c4ccccc34)NC(=O)[C@H](CCc3ccccc3)NC(=O)[C@@H]3C[C@@H](OC(=O)NCCN)CN3C2=O)cc1 [Example 43] (cyclo([Hyp]([CO-Ethylenediamine])[hPhe][dW][Ala(piperidin-4-yl)]Y(Bn)Y(Me))) | 107% | 0.316 nM | 94.3 | 101% | 31.6 nM
NCCNC(=O)O[C@@H]1C[C@H]2C(=O)N[C@@H](CCc3ccccc3)C(=O)N[C@H](Cc3c[nH]c4ccccc34)C(=O)N[C@@H](CC3CCNCC3)C(=O)N[C@@H](Cc3ccc(OCC4CCCCC4)cc3)C(=O)N3Cc4ccccc4C[C@H]3C(=O)N2C1 [Example 44] (cyclo([Hyp]([CO-Ethylenediamine])[hPhe][dW][Ala(piperidin-4-yl)]Y(Cyclohexylmethyl)[Tic])) | 105% | 1 nM | 823.8 | 75.3% | 794 nM
O=C1N[C@@H](Cc2ccc(OCc3ccccc3)cc2)C(=O)N2Cc3ccccc3C[C@H]2C(=O)N2CCOC[C@H]2C(=O)N[C@@H](CCc2ccccc2)C(=O)N[C@H](Cc2c[nH]c3ccccc23)C(=O)N[C@H]1CC1CCNCC1 [Example 45] (cyclo([Tic][Morpholine(3S-CO)][hPhe][dW][Ala(piperidin-4-yl)]Y(Bn))) | 100% | 0.398 nM | 430.7 | 100% | 158 nM
COc1cccc2[nH]cc(C[C@H]3NC(=O)[C@H](CCc4ccccc4)NC(=O)[C@@H]4COCCN4C(=O)[C@@H]4Cc5ccccc5CN4C(=O)[C@H](Cc4ccc(OCc5ccccc5)cc4)NC(=O)[C@H](CC4CCNCC4)NC3=O)c12 [Example 46] (cyclo([Tic][Morpholine(3S-CO)][hPhe][dTrp(4-OMe)][Ala(piperidin-4-yl)]Y(Bn))) | 102% | 0.0794 nM | 527.6 | 98.6% | 39.8 nM
NCCNC(=O)O[C@@H]1C[C@H]2C(=O)N[C@@H](CCc3ccccc3)C(=O)N[C@H](Cc3c[nH]c4ccccc34)C(=O)N[C@@H](CC3CCNCC3)C(=O)N[C@@H](Cc3ccc(OCc4c(Cl)cccc4Cl)cc3)C(=O)N[C@@H](Cc3cccnc3)C(=O)N2C1 [Example 47] (cyclo([3Pal][Hyp]([CO-Ethylenediamine])[hPhe][dW][Ala(piperidin-4-yl)]Y(X6))) | 108% | 0.794 nM | 226.4 | 100% | 200 nM
NCCNC(=O)O[C@@H]1C[C@H]2C(=O)N[C@@H](CCc3ccccc3)C(=O)N[C@H](Cc3c[nH]c4ccccc34)C(=O)N[C@@H](CN3CCNCC3)C(=O)N[C@@H](Cc3ccc(OCc4ccccc4)cc3)C(=O)N[C@@H](Cc3cccc(Cl)c3)C(=O)N2C1 [Example 48] (cyclo([Hyp]([CO-Ethylenediamine])[hPhe][dW][Ala(piperazin-1-yl)]Y(Bn)[Phe(3-Cl)])) | 103% | 0.02 nM | 106.6 | 100% | 2 nM
NCCNC(=O)O[C@@H]1C[C@H]2C(=O)N[C@@H](CCc3ccccc3)C(=O)N[C@H](Cc3c[nH]c4ccccc34)C(=O)N[C@@H](CC3CCNCC3)C(=O)N[C@@H](Cc3ccc(OCC4CCCC4)cc3)C(=O)N[C@@H](Cc3cccnc3)C(=O)N2C1 [Example 49] (cyclo([3Pal][Hyp]([CO-Ethylenediamine])[hPhe][dW][Ala(piperidin-4-yl)]Y(X1))) | 103% | 3.16 nM | 143.3 | 98.9% | 501 nM
